Source: article PMC10783087 (Microbiology Spectrum, 2023)
In brackets after ≈: the same amount, converted by molar mass. Several values for one entry are separate records, joined by “and”; a condition that tells them apart may be missing. Identical values can stand only once. Like-named read-outs stand apart in the source and are kept apart here.

Experiments:
M. abscessus ATCC 19977 = assay: In vitro MIC against NTM, microbroth dilution; type: cell-based; settings: 7 days
Erdman = assay: microbe, parasite or virus in culture; type: cell-based; settings: Mycobacterium tuberculosis
[1] = test system: M. abscessus ATCC 19977 in THP-1 cells; assay: Ex vivo (intra-macrophage) activity in infected THP-1 cells, resazurin; type: cell-based
Procedure: (§1) THP-1 cells were infected with either M. avium or M. abscessus at an MOI of 10 for 4 h prior to treatment. Following infection, cells were washed twice with PBS to remove non-phagocytosed bacteria. Fresh medium was then added, and cells were treated with concentrations ranging from 64 to 0.24 µg/mL and incubated for 24 h at 37°C with 5% CO2. Following 24 h of treatment, cells were treated with resazurin (0.04 mg/mL) and incubated for an additional 3–5 days. Absorbance was measured for each well at 570 and 600 nm. The percent growth reduction was calculated relative to treated and untreated controls.

[2] = test system: M. avium ATC 700891 (MAC 101) in THP-1 cells; assay: as above; type: cell-based
Procedure: as §1

[3] = test system: M. avium ATC 700891 (MAC 101); assay: In vitro MIC against NTM, microbroth dilution; type: cell-based; settings: 7 days; for MIC: Mycobacterium avium, 168 h
in vitro [4] = settings: mouse
physchem = type: physicochemical; settings: kinetic from dmso stock
Procedure: The kinetic solubility assay was conducted as previously described ([18]). Briefly, using methods described by Bevan and Lloyd ([56]), the assay was performed with 7-point (twofold) dilutions of the compounds, from 200 to 3.125 μM along with mebendazole, bexarotene, and aspirin as controls. The drug dilutions were added to PBS, pH 7.4, with a DMSO concentration of 1% (final), and incubated at 37°C for 2 h. The absorbance at 620 nm was measured for each drug dilution to estimate the solubility of the compound in triplicate/ dilution.

[5] = test system: Mtb CDC1551 FFluc reporter strain in primary bone marrow-derived macrophages; parameters: method as in PMID 31405862; settings: earlier report; read-out: EC50 against intracellular Mtb; cited from earlier work
[6] = test system: primary bone marrow-derived macrophages (BMMΦ); settings: earlier report; cited from earlier work
Mtb [7] = assay: microbe, parasite or virus in culture; type: cell-based, Mycobacterium tuberculosis; settings: for EC50: read-out: In vitro EC50; for EC90: read-out: In vitro EC90
Mtb [8] = settings: earlier report; read-out: EC50 against Mtb in vitro; cited from earlier work
MAB = settings: at 20 µM; cited from earlier work
[9] = test system: primary bone marrow-derived macrophages (BMMΦ); settings: for Si (CC50/EC50): macrophage CC50 / in vitro Mtb EC50; for S.I. (CC50 / EC50): BMMΦ CC50 / ex vivo EC50, Table S1
[10] = type: in vitro ADME, mouse
Procedure: The mouse microsomal stability assay was conducted as described by Obach ([57]), and the results are presented as the percentages remaining after 30 min. Values greater than 100% are likely due to changes in the solubility of the compounds over the course of the assay and represent high stability in microsomes.

H37Rv = assay: microbe, parasite or virus in culture; type: cell-based; settings: Mycobacterium tuberculosis
H37Rv (ΔkatG) = type: cell-based
Mtb Erdman = type: in vivo, Mycobacterium tuberculosis; settings: for median lung bacterial burden: C57Bl/6 mice, oral gavage 2 weeks; for median lung bacterial burden / colonies in spleens (dissemination): INH 25 mg/kg, MSU compounds 200 mg/kg
[11] = test system: Mtb CDC1551 FFluc reporter strain in primary bone marrow-derived macrophages; assay: microbe, parasite or virus in culture; type: cell-based; settings: Mycobacterium tuberculosis, Macrophage; for EC90: read-out: ex vivo EC90
in vitro [12] = type: cell-based; settings: human, 24 h treatment
Procedure: For additional cell lines including HepG2, HeLa, and THP-1, the following protocol was used. HepG2 (ATCC HB-8065) and HeLa (ATCC CCL-2) were cultured in cEMEM supplemented with 10% (vol/vol)/FBS and 1%(vol/vol) PenStrep. THP-1 cells were cultured in cRPMI-1640 medium (ATCC 30-2001) supplanted with 10% (vol/vol) FBS and 0.05 mM 2-mercaptoethanol (Sigma M3148). THP-1 cells were seeded in 96 well plates at 1 × 10^5 cells/mL with complete medium. HepG2 and HeLa cells were seeded in 96 well plates with cEMEM at 1 × 10^6 cells/mL. Cells were treated with compounds by dose response in a range of 128–0.48 µg/mL in triplicate or mitomycin C at a range of 128–0.0625 µM. Cells were treated for 24 h at 37°C with 5% CO2. Cells were then treated with either MTT or resazurin for 4 h. Absorbance was then measured at 570 nm for MTT plates. Percent cytotoxicity was calculated relative to positive mitomycin C and untreated controls. Percent cytotoxicity was used to calculate the IC50 using Graphpad prism software using non-linear regression analysis.

[13] = type: in vivo, female C57Bl/6 mice; settings: 200 mg/kg oral in corn oil
Procedure: Female C57Bl/6 mice were dosed with 200 mg/kg (based on the average body mass of 27 mice) of MSU-43085, MSU-43165, or MSU-43170 formulated in corn oil by oral gavage. At 1-, 2-, and 4-h post treatment, blood samples were taken from three mice from each treatment group by cardiac puncture and placed in BD Lithium HeparinN Vacutainer tubes. Plasma was separated from whole blood by centrifuge, and compounds were methanol extracted. Lungs were harvested from mice 4- h post treatment. Lung samples were homogenized using a closed tissue grinder system (Fisherbrand—02-542-09), and compounds were methanol extracted from lung homogenates. Methanol-extracted samples were quantified by UPLC/MS/MS.

Mtb [14] = settings: cited from earlier work
[15] = Mycobacteroides abscessus, ATCC19977, 168 h
[16] = 37 °C, pH 2, aqueous buffer, Table S5, read-out: Kinetic solubility at pH 2.0
[17] = 37 °C, pH 7.4, aqueous buffer, Table S5, read-out: Kinetic solubility at pH 7.4
[18] = Mycobacterium tuberculosis, 144 h
[19] = Table S5, % remaining after 30 minutes with mouse microsomes
[20] = intracellular Mtb in BMMΦ, Table S1, read-out: ex vivo EC50
[21] = intracellular Mtb in BMMΦ, Table S1
[22] = read-out: HeLa Cytotoxicity (IC50)
[23] = read-out: HepG2 Cytotoxicity (IC50)
[24] = read-out: THP-1 Cytotoxicity (IC50)
[25] = 37 °C, aqueous buffer, PBS pH 7.4, read-out: Kinetic solubility pH 7.4
[26] = aqueous buffer, PBS pH 2.0, read-out: Kinetic solubility pH 2.0
[27] = read-out: intra-macrophage EC50
[28] = mouse microsomes, % remaining after 30 min

## NCC[C@H](O)C(=O)N[C@@H]1C[C@H](N)[C@@H](O[C@H]2O[C@H](CN)[C@@H](O)[C@H](O)[C@H]2O)[C@H](O)[C@H]1O[C@H]1O[C@H](CO)[C@@H](O)[C@H](N)[C@H]1O [Amikacin]
M. abscessus ATCC 19977
  MIC: 6.8 µM (≈ 3.98 µg/mL)
M. abscessus ATCC 19977; [15]
  MIC: 6.8 µM (≈ 3.98 µg/mL)

## COc1nc2ccc(Br)cc2cc1[C@@H](c1ccccc1)[C@@](O)(CCN(C)C)c1cccc2ccccc12 [Bedaquiline]
Erdman
  EC50: 220 nM

## CC[C@H]1OC(=O)[C@H](C)[C@@H](O[C@H]2C[C@@](C)(OC)[C@@H](O)[C@H](C)O2)[C@H](C)[C@@H](O[C@@H]2O[C@H](C)C[C@H](N(C)C)[C@H]2O)[C@](C)(OC)C[C@@H](C)C(=O)[C@H](C)[C@@H](O)[C@]1(C)O [Clarithromycin]
M. abscessus ATCC 19977; [15]
  MIC: 1.4 µM (≈ 1.05 µg/mL)
[1]
  Ex vivo (>90% inhibition), M. abscessus ATCC 19977: 86 µM
[2]
  Ex vivo (>90% inhibition), M. avium ATC 700891 (MAC 101): 171 µM
[3]
  MIC: 0.08 µM (≈ 0.0598 µg/mL)

## CC(C)/N=c1\cc2n(-c3ccc(Cl)cc3)c3ccccc3nc-2cc1Nc1ccc(Cl)cc1 [Clofazimine]
Erdman
  EC50: 300 nM

## CC(C)N(C(=O)CSc1nc2ccc(Cl)cc2[nH]1)C(C)C [HC2099]
In vitro [4]
  CC50: > 80000 nM
physchem; [16]
  solubility kinetic: > 300 µM
physchem; [17]
  solubility kinetic: 178 µM (≈ 58 µg/mL)
[5]
  EC50: < 300 nM
[6]
  cytotoxicity in macrophages: no detectable cytotoxicity
Mtb [7]; [18]
  EC50: 5900 nM
  EC90: 13700 nM
Mtb [8]
  EC50: 1700 nM
MAB
  inhibition of MAB growth in vitro: 96.5%
[9]
  Si (CC50/EC50): >13
[10]; [19]
  Microsome Stability: 71%

## Cc1ccc2nc(SCC(=O)N(C(C)C)C(C)C)[nH]c2c1 [HC2183]
In vitro [4]
  CC50: > 80000 nM
physchem; [16]
  solubility kinetic: > 300 µM
physchem; [17]
  solubility kinetic: > 200 µM
[5]
  EC50: 3000 nM
[6]
  cytotoxicity in macrophages: no detectable cytotoxicity
Mtb [7]; [18]
  EC50: 7300 nM
  EC90: 16000 nM
Mtb [8]
  EC50: 3200 nM
[9]
  Si (CC50/EC50): >11
[10]; [19]
  Microsome Stability: 25%

## NNC(=O)c1ccncc1 [Isoniazid]
H37Rv; read-out: MIC, H37Rv
  MIC: 0.2 µM
H37Rv (ΔkatG)
  MIC, H37Rv (ΔkatG): >14.5 µM
Mtb Erdman
  median lung bacterial burden: no colonies were isolated
  colonies in spleens (dissemination): no colonies were isolated

## Cc1cc2nc(SCC(=O)N(C(C)C)C(C)C)[nH]c2cc1C [MSU-42766]
H37Rv; read-out: MIC, H37Rv
  MIC: 1.5 µM
H37Rv; read-out: activity (MIC) against WT
  MIC: 0.5 µg/mL
In vitro [4]
  CC50: > 80000 nM
M. abscessus ATCC 19977
  MIC: 12 µM (≈ 3.83 µg/mL)
M. abscessus ATCC 19977; [15]
  MIC: 12 µM (≈ 3.83 µg/mL)
Mtb [7]; [18]
  EC50: 1300 nM
  EC90: 8200 nM
[11]; [20]
  EC50: 410 nM
[11]; [21]
  EC90: 970 nM
H37Rv (ΔkatG)
  MIC, H37Rv (ΔkatG): 1.5 µM (≈ 0.479 µg/mL)
[9]
  S.I. (CC50 / EC50): > 195.6
  Si (CC50/EC50): >61
Erdman
  EC50: 1300 nM
[3]
  In vitro MIC, M. avium ATC 700891 (MAC 101): no detectable activity
  MIC: > 200 µM
In vitro [12]; [22]
  IC50: > 128 µg/mL
In vitro [12]; [23]
  IC50: > 128 µg/mL
In vitro [12]; [24]
  IC50: 39.6 µg/mL (≈ 124 µM)

## CC(C)N(C(=O)CNc1nc2cc(Cl)c(Cl)cc2[nH]1)C(C)C [MSU-43165]
In vitro [4]
  CC50: > 80000 nM
physchem; [25]
  solubility kinetic: > 150 µM
physchem; [26]
  solubility kinetic: > 300 µM
Mtb [7]; [18]
  EC50: 380 nM
  EC90: 628 nM
Mtb [7]
  EC90: 630 nM
[11]; [20]
  EC50: 130 nM
[11]; [21]
  EC90: 150 nM
[11]; [27]
  EC50: 134 nM
[13]; 1 h
  Blood plasma concentration (1 h, fold EC50): 1.3 fold EC50 and 1.3× fold EC50
[9]
  S.I. (CC50 / EC50): > 596.6
  Si (CC50/EC50): >210
Mtb Erdman; 200 mg/kg oral, 2 weeks, not significant (P > 0.99)
  absolute difference of the median lung burden vs vehicle control: 1.6 × 10^4 CFUs/mL
Mtb Erdman
  median lung bacterial burden: 5.7 × 10^3 CFUs/mL
  colonies in spleens (dissemination): colonies could also be detected
[10]; [19]
  Microsome Stability: 106%
[10]; [28]
  Microsome Stability: 106%

## CC(C)N(C(=O)COc1nc2cc(Cl)c(Cl)cc2[nH]1)C(C)C [MSU-43170]
In vitro [4]
  CC50: > 80000 nM
physchem; [25]
  solubility kinetic: > 50 µM
physchem; [26]
  solubility kinetic: > 300 µM
Mtb [7]; [18]
  EC50: 116 nM
  EC90: 263 nM
Mtb [7]
  EC50: 120 nM
  EC90: 260 nM
[11]; [21]
  EC90: 140 nM
[11]; [27]
  EC50: 35 nM
[13]; 2 h time point (1 h unavailable)
  Blood plasma concentration (2 h, fold EC50): 4 fold EC50 and 4× ^ a fold EC50
[9]
  S.I. (CC50 / EC50): > 2285
  Si (CC50/EC50): >667
[10]; [19]
  Microsome Stability: 95%
[10]; [28]
  Microsome Stability: 95%

## CO[C@@]12[C@H](COC(N)=O)C3=C(C(=O)C(C)=C(N)C3=O)N1C[C@@H]1N[C@@H]12 [Mitomycin C, reference compound]
In vitro [12]; [22]
  IC50: 10.5 µg/mL (≈ 31.5 µM)
In vitro [12]; [23]
  IC50: 23 µg/mL (≈ 68.8 µM)
In vitro [12]; [24]
  IC50: 3.09 µg/mL (≈ 9.25 µM)

## COc1c(N2C[C@@H]3CCCN[C@@H]3C2)c(F)cc2c(=O)c(C(=O)O)cn(C3CC3)c12 [Moxifloxacin]
H37Rv; read-out: MIC, H37Rv
  MIC: 0.15 µM
H37Rv (ΔkatG)
  MIC, H37Rv (ΔkatG): 0.15 µM (≈ 0.0602 µg/mL)

## CC1(C)CCC(NC(=O)c2cc3c(Cl)cc(Cl)cc3[nH]2)CC1 [NITD-304]
Mtb [14]
  MIC: 0.02 µM (≈ 0.00679 µg/mL)

## CC1(C)CCC(NC(=O)c2cc3c(F)cc(F)cc3[nH]2)CC1 [NITD-349]
Mtb [14]
  MIC: 0.03 µM (≈ 0.00919 µg/mL)

## CO[C@H]1/C=C/O[C@@]2(C)Oc3c(C)c(O)c4c(O)c(c(/C=N/N5CCN(C)CC5)c(O)c4c3C2=O)NC(=O)/C(C)=C\C=C\[C@H](C)[C@H](O)[C@@H](C)[C@@H](O)[C@@H](C)[C@H](OC(C)=O)[C@@H]1C [Rifampicin]
[3]
  MIC: 0.07 µM (≈ 0.0576 µg/mL)
